# Where two headings read alike, the source gives them in different places.
# Molecular target: T1, BCL6 (Homo sapiens, UniProt P41182)
# T1 construct: endogenous in cells; host or cells: T47D breast cancer epithelial cells
# Assay: Immunofluorescence protocol for high content imaging of BCL6 (degradation) in T47D cells, 3 days compound treatment
# Type: cell-based
# Conditions: for DC50: read-out: Mean DC50 (nM)* category; for Dmax: read-out: Mean Dmax (%)** category
# Outline: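 Remaining BCL6 in breast cancer T47D cells was measured by high-content immunofluorescence imaging after 3 days of treatment with serially diluted compound (top 0.1 or 1 μM). Nuclei were stained with Hoechst and cells with CellMask.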
# [1] = T47D cells, 3 days compound treatment
Compound,DC50 [1] [nM],Dmax [1] [%],Dmax (T47D) [%],DC50 [nM]
"CNC(=O)COc1cc2cc(Nc3nc(N4CCC(OC5CCC6(CC5)CN(c5cccc7c5C(=O)N(C5CCC(=O)NC5=O)C7)C6)CC4)ncc3Cl)ccc2n(C(C)C)c1=O (stereo not shown) [Compound 70, 2-{[6-({5-chloro-2-[4-({2-[2-(2,6-dioxopiperidin-3-yl)-3-oxo-2,3-dihydro-1H-isoindol-4-yl]-2-azaspiro[3.5]nonan-7-yl}oxy)piperidin-1-yl]pyrimidin-4-yl}amino)-2-oxo-1-(propan-2-yl)-1,2-dihydroquinolin-3-yl]oxy}-N-methylacetamide]",10 to 50,50 to 70,–,–
"CNC(=O)COc1cc2cc(Nc3nc(N4CCC(O[C@H]5C[C@H](N6CCC7(CCN(c8ccc9c(c8)C(=O)N(C8CCC(=O)NC8=O)C9=O)C7)CC6)C5)CC4)ncc3Cl)ccc2n(C(C)C)c1=O (stereo partly shown) [Compound 360, 2-({6-[(5-chloro-2-{4-[(1r,3r)-3-{2-[2-(2,6-dioxopiperidin-3-yl)-1,3-dioxo-2,3-dihydro-1H-isoindol-5-yl]-2,8-diazaspiro[4.5]decan-8-yl}cyclobutoxy]piperidin-1-yl}pyrimidin-4-yl)amino]-2-oxo-1-(propan-2-yl)-1,2-dihydroquinolin-3-yl}oxy)-N-methylacetamide]",–,–,50 to 70,< 10
"CNC(=O)COc1cc2cc(Nc3nc(N4CCC(OC5CN([C@H]6CC[C@H](c7ccc8c(c7)CN(C7CCC(=O)NC7=O)C8=O)CC6)C5)CC4)ncc3Cl)ccc2n(C(C)C)c1=O (single isomer, unassigned) [Compound 165, 2-((6-((5-chloro-2-(4-((1-((1r,4r)-4-(2-(2,6-dioxopiperidin-3-yl)-1-oxoisoindolin-5-yl)cyclohexyl)azetidin-3-yl)oxy)piperidin-1-yl)pyrimidin-4-yl)amino)-1-isopropyl-2-oxo-1,2-dihydroquinolin-3-yl)oxy)-N-methylacetamide]",< 10,50 to 70,–,–
"CNC(=O)COc1cc2cc(Nc3nc(N4CCC(F)(CN5CC(N6CCC(c7ccc8c(c7F)CN(C7CCC(=O)NC7=O)C8=O)CC6)C5)CC4)ncc3Cl)ccc2n(C(C)C)c1=O (stereo not shown) [Compound 285, 2-({6-[(5-chloro-2-{4-[(3-{4-[2-(2,6-dioxopiperidin-3-yl)-4-fluoro-1-oxo-2,3-dihydro-1H-isoindol-5-yl]piperidin-1-yl}azetidin-1-yl)methyl]-4-fluoropiperidin-1-yl}pyrimidin-4-yl)amino]-2-oxo-1-(propan-2-yl)-1,2-dihydroquinolin-3-yl}oxy)-N-methylacetamide]",–,–,≥ 70,< 10
"CNC(=O)COc1cc2cc(Nc3nc(N4CCC(O[C@H]5C[C@H](N6CCC(c7c(C)cc8c(c7F)CN(C7CCC(=O)NC7=O)C8=O)CC6)C5)CC4)ncc3Cl)ccc2n(C(C)C)c1=O (stereo partly shown) [Compound 397, 2-({6-[(5-chloro-2-{4-[(1r,3r)-3-{4-[2-(2,6-dioxopiperidin-3-yl)-4-fluoro-6-methyl-1-oxo-2,3-dihydro-1H-isoindol-5-yl]piperidin-1-yl}cyclobutoxy]piperidin-1-yl}pyrimidin-4-yl)amino]-2-oxo-1-(propan-2-yl)-1,2-dihydroquinolin-3-yl}oxy)-N-methylacetamide]",–,–,≥ 70,< 10
"CNC(=O)COc1cc2c(F)c(Nc3cc(N4CCN(CC5CCC6(CC5)CN(c5cccc7c5C(=O)N(C5CCC(=O)NC5=O)C7=O)C6)CC4)ncc3Cl)ccc2n(C(C)C)c1=O (stereo not shown) [Compound 247, 2-{[6-({5-chloro-2-[4-({2-[2-(2,6-dioxopiperidin-3-yl)-1,3-dioxo-2,3-dihydro-1H-isoindol-4-yl]-2-azaspiro[3.5]nonan-7-yl}methyl)piperazin-1-yl]pyridin-4-yl}amino)-5-fluoro-2-oxo-1-(propan-2-yl)-1,2-dihydroquinolin-3-yl]oxy}-N-methylacetamide]",–,–,≥ 70,< 10
"CNC(=O)COc1cc2cc(Nc3nc(N4CCC(CN5CCC6(CCN(c7c(F)ccc8c7C(=O)N(C7CCC(=O)NC7=O)C8=O)C6)C5)CC4)ncc3Cl)ccc2n(C(C)C)c1=O (stereo not shown) [Compound 139, 2-{[6-({5-chloro-2-[4-({7-[2-(2,6-dioxopiperidin-3-yl)-5-fluoro-1,3-dioxo-2,3-dihydro-1H-isoindol-4-yl]-2,7-diazaspiro[4.4]nonan-2-yl}methyl)piperidin-1-yl]pyrimidin-4-yl}amino)-2-oxo-1-(propan-2-yl)-1,2-dihydroquinolin-3-yl]oxy}-N-methylacetamide]",< 10,50 to 70,–,–
"CNC(=O)COc1cc2c(F)c(Nc3nc(N4CCC(CN5CCC6(CN(c7ccc8c(c7)CN(C7CCC(=O)NC7=O)C8=O)C6)C(F)(F)C5)CC4)ncc3Cl)ccc2n(C(C)C)c1=O (stereo not shown) [Compound 171, 2-{[6-({5-chloro-2-[4-({2-[2-(2,6-dioxopiperidin-3-yl)-1-oxo-2,3-dihydro-1H-isoindol-5-yl]-5,5-difluoro-2,7-diazaspiro[3.5]nonan-7-yl}methyl)piperidin-1-yl]pyrimidin-4-yl}amino)-5-fluoro-2-oxo-1-(propan-2-yl)-1,2-dihydroquinolin-3-yl]oxy}-N-methylacetamide]",< 10,≥ 70,–,–
"CNC(=O)COc1cc2cc(Nc3nc(N4CCC(CN5CCC6(CC5)CN(c5ccc7c(c5OC)CN(C5CCC(=O)NC5=O)C7=O)C6(C)C)CC4)ncc3Cl)ccc2n(C(C)C)c1=O (stereo not shown) [Compound 340, 2-{[6-({5-chloro-2-[4-({2-[2-(2,6-dioxopiperidin-3-yl)-4-methoxy-1-oxo-2,3-dihydro-1H-isoindol-5-yl]-1,1-dimethyl-2,7-diazaspiro [3.5]nonan-7-yl}methyl)piperidin-1-yl]pyrimidin-4-yl}amino)-2-oxo-1-(propan-2-yl)-1,2-dihydroquinolin-3-yl]oxy}-N-methylacetamide]",–,–,–,10 to 50
"CNC(=O)COc1cc2cc(Nc3nc(N4CCC(CN5CCC6(CC5)CC5(CN(c7cccc8c7C(=O)N(C7CCC(=O)NC7=O)C8=O)C5)C6)CC4)ncc3Cl)ccc2n(C(C)C)c1=O (stereo not shown) [Compound 374, 2-{[6-({5-chloro-2-[4-({2-[2-(2,6-dioxopiperidin-3-yl)-1,3-dioxo-2,3-dihydro-1H-isoindol-4-yl]-2,9-diazadispiro[3.1.5^6.1^4]dodecan-9-yl}methyl)piperidin-1-yl]pyrimidin-4-yl}amino)-2-oxo-1-(propan-2-yl)-1,2-dihydroquinolin-3-yl]oxy}-N-methylacetamide]",–,–,≥ 70,< 10
"CNC(=O)COc1cc2cc(Nc3nc(N4CCC(O[C@H]5C[C@H](N6CCC7(CCN(c8ccc9c(c8)CN(C8CCC(=O)NC8=O)C9=O)CC7)CC6)C5)CC4)ncc3Cl)ccc2n(C(C)C)c1=O (stereo partly shown) [Compound 349, 2-({6-[(5-chloro-2-{4-[(1r,3r)-3-{9-[2-(2,6-dioxopiperidin-3-yl)-1-oxo-2,3-dihydro-1H-isoindol-5-yl]-3,9-diazaspiro [5.5]undecan-3-yl}cyclobutoxy]piperidin-1-yl}pyrimidin-4-yl)amino]-2-oxo-1-(propan-2-yl)-1,2-dihydroquinolin-3-yl}oxy)-N-methylacetamide]",–,–,≥ 70,< 10
"CNC(=O)COc1cc2cc(Nc3nc(N4CCC(CN5CC6(CCN(c7cc8c(cc7OC)C(=O)N(C7CCC(=O)NC7=O)C8)CC6)C5)CC4)ncc3Cl)ccc2n(C(C)C)c1=O (stereo not shown) [Compound 85, 2-{[6-({5-chloro-2-[4-({7-[2-(2,6-dioxopiperidin-3-yl)-6-methoxy-1-oxo-2,3-dihydro-1H-isoindol-5-yl]-2,7-diazaspiro[3.5]nonan-2-yl}methyl)piperidin-1-yl]pyrimidin-4-yl}amino)-2-oxo-1-(propan-2-yl)-1,2-dihydroquinolin-3-yl]oxy}-N-methylacetamide]",< 10,50 to 70,–,–
CNC(=O)COc1cc2cc(Nc3nc(N4CCC(O[C@H]5C[C@H](N6CC=C(c7ccc8c(c7Cl)CN([C@H]7CCC(=O)NC7=O)C8=O)CC6)C5)CC4)ncc3Cl)ccc2n(C(C)C)c1=O [Compound 428],–,–,≥ 70,< 10
"CNC(=O)COc1cc2cc(Nc3nc(N4CCC(O[C@H]5C[C@H](N6CCN(c7ccc8c(c7F)CN([C@H]7CCC(=O)NC7=O)C8=O)CC6)C5)CC4)ncc3Cl)ccc2n(C(C)C)c1=O [Compound 388, 2-({6-[(5-chloro-2-{4-[(1r,3r)-3-(4-{2-[(3S)-2,6-dioxopiperidin-3-yl]-4-fluoro-1-oxo-2,3-dihydro-1H-isoindol-5-yl}piperazin-1-yl)cyclobutoxy]piperidin-1-yl}pyrimidin-4-yl)amino]-2-oxo-1-(propan-2-yl)-1,2-dihydroquinolin-3-yl}oxy)-N-methylacetamide]",–,–,50 to 70,< 10
"CNC(=O)COc1cc2cc(Nc3nc(N4CCC(CN5CCC6(CC5)CN(c5ccc7c(c5)C(=O)N(C5CCC(=O)NC5=O)C7=O)C6=O)CC4)ncc3Cl)ccc2n(C(C)C)c1=O (stereo not shown) [Compound 65, 2-{[6-({5-chloro-2-[4-({2-[2-(2,6-dioxopiperidin-3-yl)-1,3-dioxo-2,3-dihydro-1H-isoindol-5-yl]-1-oxo-2,7-diazaspiro[3.5]nonan-7-yl}methyl)piperidin-1-yl]pyrimidin-4-yl}amino)-2-oxo-1-(propan-2-yl)-1,2-dihydroquinolin-3-yl]oxy}-N-methylacetamide]",≥ 100,≥ 70,–,–
"CNC(=O)COc1cc2cc(Nc3nc(N4CC5C(CN6CCN(c7cccc8c7C(=O)N(C7CCC(=O)NC7=O)C8=O)CC6)C5C4)ncc3Cl)ccc2n(C(C)C)c1=O (stereo not shown) [Compound 158, 2-{[6-({5-chloro-2-[6-({4-[2-(2,6-dioxopiperidin-3-yl)-1,3-dioxo-2,3-dihydro-1H-isoindol-4-yl]piperazin-1-yl}methyl)-3-azabicyclo [3.1.0]hexan-3-yl]pyrimidin-4-yl}amino)-2-oxo-1-(propan-2-yl)-1,2-dihydroquinolin-3-yl]oxy}-N-methylacetamide]",10 to 50,< 50,–,–
